# Paper PMC10906247, “From Functional Fatty Acids to Potent and Selective Natural-Product-Inspired Mimetics via Conformational Profiling” (ACS Central Science, 2024)
# Values joined by “and” are separate entries in the source; they are usually repeats but may differ in a detail not shown here. Equal values may be shown once. Read-outs that look alike come from different tables or passages of the source.
# Tests used:
# [1] = Metabolic stability / intrinsic clearance in cryopreserved human hepatocytes; conditions: for hepatocyte CLint at 1 µM / half-life at 1 µM: human
# Experimental: To gain insight into potential metabolic issues, a preliminary assessment of 1-E and 3-C in a metabolic stability assay utilizing human hepatocytes was conducted.
# 7.1. ADME-Tox: In Vitro Metabolism
# Intrinsic clearance (cr yopreserved hepatocytes, human)
# Note: Unit of Clint is µ L/min/mg for microsomes, S9 and UGT assa ys; µL/min/pmol for CYP assays; µ L/min/Million cells for hepatocyte assays […]
# 8.1. Experimental Conditions
# 8.1.1. ADME-Tox: In Vitro Metabolism
# 8.2. Analysis and expression of results
# 8.2.1. ADME-Tox: In Vitro Metabolism
# Intrinsic Clearance (microsomes, S9, cryopreserved hepatocytes, reco mbinant CYP, recombinant UGT) Metabolic stability, expressed as percent of the parent compound remaining , was calculated by comparing the peak area of the compound at the time point relative to that at time -0. The ha lf-life (T1/2) was estimated from the slope of the initial linear range of the logarithmic curve of compound remaining (%) vs. time, assu ming the first -order kinetics. The apparent intrinsic cleara nce (CLint, in µL/min/pmol, µL/min/mg or µL/min/Mcell ) was calculated according to the following formula: […]
# T1/2*(mg protein/µL or million cells/µL or pmol CYP iso zyme/µL)
# [2] = biological target: T1, TLX ligand binding domain (Homo sapiens, UniProt Q9Y466); assay: TLX ligand sensing assay (AlphaScreen, RIP140 NR box peptide recruitment); format: biochemical; conditions: for TLX max. efficacy: oleic acid = 100
# T1 construct: purchased NovAliX SAS, Strasbourg, France
# [3] = biological target: GPR40 (FFAR1) (Homo sapiens, UniProt O14842); assay: PathHunter β-arrestin assay (Eurofins Discovery), GPR40; format: cell-based; conditions: for GPR40 potency relative to oleic acid: EC50 ratio vs control oleic acid; for EC50 / GPR40 max. efficacy: dose-response; for EC50: β-arrestin assay, read-out: GPR40 EC50 measured; for GPR40 max. efficacy: oleic acid = 100
# Experimental: (§1) With these compounds in hand, attention was directed at evaluating their properties as ligands to GPR40, GPR120,[24] and TLX. Initial profiling experiments were conducted targeting the GPCR targets at a single concentration (15 μM) in a commercially available β-arrestin assay.
# (§2) Functional assays at GPR40 and GPR120 were conducted by Eurofins Discovery services using their PathHunter® b-Arrestin assay that monitors the activation of a GPCR in a homogenous, non-imaging assay format using a technology developed by DiscoverX called Enzyme Fragment Complementation (EFC) with b-galactosidase (b-Gal) as the functional reporter. b-Arrestin GPCR cell lines built on the principles of EFC are engineered to co-express the ProLinkTM (PK) tagged GPCR and the Enzyme Acceptor (EA) tagged b-Arrestin. Activation of the GPCR-PK induces b-Arrestin-EA recruitment, forcing complementation of the two b-galactosidase enzyme fragments (EA and PK). The resulting functional enzyme hydrolyzes substrate to generate chemiluminescent […]
# (§3) Additional information can be found at: www.eurofinsdiscovery.com/solution/b-arrestin Below are dose-response curves generated from Eurofins Discovery services for activity of ligands depicted in Figure 6B at GPR40 (FFAR1) and GPR120. […]
# [4] = biological target: T2, GPR120 (Homo sapiens, UniProt Q5NUL3); assay: PathHunter β-arrestin assay (Eurofins Discovery), GPR120; format: cell-based; conditions: for EC50: β-arrestin assay, read-out: GPR120 EC50 measured; for GPR120 max. efficacy: oleic acid = 100
# T2 sequence (Q5NUL3 1-361): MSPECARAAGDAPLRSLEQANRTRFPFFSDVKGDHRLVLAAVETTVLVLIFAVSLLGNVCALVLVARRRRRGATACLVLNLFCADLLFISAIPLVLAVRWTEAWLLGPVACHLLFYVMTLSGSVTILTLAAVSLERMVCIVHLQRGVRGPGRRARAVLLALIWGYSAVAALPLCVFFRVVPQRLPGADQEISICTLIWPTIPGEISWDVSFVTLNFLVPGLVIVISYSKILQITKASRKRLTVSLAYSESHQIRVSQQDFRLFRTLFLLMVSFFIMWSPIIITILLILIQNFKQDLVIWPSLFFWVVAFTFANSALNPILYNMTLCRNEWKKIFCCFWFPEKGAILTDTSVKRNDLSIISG
# Experimental: as §1, §2, §3
# [5] = cryopreserved human hepatocytes
# [6] = cryopreserved human hepatocytes, Half-life (mean), human hepatocytes, 1.0E-06 M
# [7] = cryopreserved human hepatocytes, Half-life, single replicates (1st, 2nd, 3rd), human hepatocytes, 1.0E-06 M
# [8] = ALPHA normalized, supplement, read-out: TLX EC50 (dose-response curves)
# [9] = coactivator recruitment, read-out: TLX EC50
# [10] = maximal efficacy measured at 100 μM
# Chain of GPR40 (FFAR1) (O14842 whole entry): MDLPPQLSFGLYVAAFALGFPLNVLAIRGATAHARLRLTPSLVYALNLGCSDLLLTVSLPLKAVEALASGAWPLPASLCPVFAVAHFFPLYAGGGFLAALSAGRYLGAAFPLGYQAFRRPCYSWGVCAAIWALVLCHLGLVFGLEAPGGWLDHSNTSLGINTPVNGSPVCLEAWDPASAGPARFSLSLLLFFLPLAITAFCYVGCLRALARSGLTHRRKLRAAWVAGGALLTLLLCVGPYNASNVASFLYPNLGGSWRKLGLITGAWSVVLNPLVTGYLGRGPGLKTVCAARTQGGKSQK
# T1 sequence (Q9Y466 155-383 limits assumed): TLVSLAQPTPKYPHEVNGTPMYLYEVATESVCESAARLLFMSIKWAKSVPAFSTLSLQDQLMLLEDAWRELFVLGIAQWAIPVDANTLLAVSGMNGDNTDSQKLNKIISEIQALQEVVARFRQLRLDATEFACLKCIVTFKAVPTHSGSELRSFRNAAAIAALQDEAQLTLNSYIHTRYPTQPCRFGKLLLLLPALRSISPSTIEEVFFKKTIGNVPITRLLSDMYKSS
smiles,measurement,setting,value
"C=CCN1CC[C@]23c4c5ccc(O)c4O[C@H]2C(=O)CC[C@@]3(O)[C@H]1C5 [Naloxone, reference compound]","Half-life, single replicates (1st, 2nd, 3rd)","[1]; human hepatocytes, 1.0E-06 M",1.47 h and 1.852 h
same,hepatocyte CLint at 1 µM,[1]; [5],10.1 µL/min/1e6 cells
same,half-life at 1 µM,[1]; [6],1.65 h
same,half-life at 1 µM,[1]; [7],1.61 h
"CCN(CC)CCN1C(=O)CN=C(c2ccccc2F)c2cc(Cl)ccc21 [Flurazepam, reference compound]","Half-life, single replicates (1st, 2nd, 3rd)","[1]; human hepatocytes, 1.0E-06 M",0.797 h and 0.895 h
same,hepatocyte CLint at 1 µM,[1]; hepatocytes,19.3 µL/min/1e6 cells
same,half-life at 1 µM,"[1]; hepatocytes, Half-life (mean), human hepatocytes, 1.0E-06 M",0.85 h
same,half-life at 1 µM,"[1]; hepatocytes, Half-life, single replicates (1st, 2nd, 3rd), human hepatocytes, 1.0E-06 M",0.882 h
CCCC/C=C(/C)C/C(C)=C/[C@H](C)CCCCCCCC(=O)O [4-A],EC50,[2]; [8],1520 nM
"O=c1cc(C(F)(F)F)c2ccc(O)cc2o1 [HFC, reference compound]",CLint,"[1]; human hepatocytes, 1.0E-06 M",47.3 μL/min/million cells
same,Half-life (mean),"[1]; human hepatocytes, 1.0E-06 M",0.35 h
same,"Half-life, single replicates (1st, 2nd, 3rd)","[1]; human hepatocytes, 1.0E-06 M",0.348 h and 0.352 h and 0.347 h
CCCCCCC[C@H](C)/C=C(/C)C/C(C)=C/[C@H](C)CCCC(=O)O [2-E],EC50,[2]; [8],1310 nM
same,GPR40 potency relative to oleic acid,[3],~7 times
same,EC50,[3],5000 nM and ~5000 nM
same,GPR40 max. efficacy,[3],68%
same,selectivity for GPR120,[4]; GPR120 over GPR40,5 fold
same,EC50,[4]; dose-response,1100 nM
same,GPR120 max. efficacy,[4]; dose-response,35%
CCCCCCCC/C=C(/C)C/C(C)=C/[C@@H](C)CCCC(=O)O [2-B],EC50,[2]; [8],3080 nM
CCCCCCCCCC/C=C(/C)C/C(C)=C/[C@@H](C)CC(=O)O [1-B],EC50,[2]; [8],2360 nM
CCCCCC/C=C(/C)C/C(C)=C/[C@H](C)CCCCCC(=O)O [3-A],EC50,[2]; [8],1560 nM
CCC[C@H](C)/C=C(/C)C/C(C)=C/[C@@H](C)CCCCCCCC(=O)O [4-F],EC50,[2]; [8],1890 nM
CCCCC[C@H](C)/C=C(/C)C/C(C)=C/[C@@H](C)CCCCCC(=O)O [3-F],EC50,[2]; [8],892 nM
same,EC50,[2]; [9],900 nM
same,TLX max. efficacy,[2],71%
CCCCC[C@@H](C)/C=C(/C)C/C(C)=C/[C@@H](C)CCCCCC(=O)O [3-D],EC50,[2]; [8],1170 nM
"CC(C)NCC(O)COc1cccc2ccccc12 (stereo not shown) [Propanolol, Propranolol, reference compound]",half-life at 1 µM,[1]; [6],3.12 h
same,half-life at 1 µM,[1]; [7],3.25 h
CCCCCCCCCC/C=C(/C)C/C(C)=C/[C@H](C)CC(=O)O [1-A],EC50,[2]; [8],2180 nM
CCCCCCCC/C=C(/C)C/C(C)=C/[C@H](C)CCCC(=O)O [2-A],EC50,[2]; [8],2510 nM
CCCCC[C@@H](C)/C=C(/C)C/C(C)=C/[C@H](C)CCCCCC(=O)O [3-C],EC50,[2]; [8],818 nM
same,EC50,[2]; [9],800 nM
same,TLX max. efficacy,[2],66%
same,"Half-life, single replicates (1st, 2nd, 3rd)","[1]; human hepatocytes, 1.0E-06 M, listed as GCM/LEM 3-C",1.862 h and 1.848 h
same,hepatocyte CLint at 1 µM,[1]; [5],8.7 µL/min/1e6 cells
same,half-life at 1 µM,[1]; [6],1.9 h
same,half-life at 1 µM,[1]; [7],1.97 h
same,"% Compound Remaining, mean","[1]; incubation 30 minutes, 1.0E-06 M",96 % remaining
same,"% Compound Remaining, single replicates (1st, 2nd, 3rd)","[1]; incubation 30 minutes, 1.0E-06 M, listed as GCM/LEM 3-C",97.3 % remaining and 95.1 % remaining and 96.7 % remaining
same,"% Compound Remaining, mean","[1]; incubation 60 minutes, 1.0E-06 M",75 % remaining
same,"% Compound Remaining, single replicates (1st, 2nd, 3rd)","[1]; incubation 60 minutes, 1.0E-06 M, listed as GCM/LEM 3-C",72.5 % remaining and 71.7 % remaining and 79.8 % remaining
same,"% Compound Remaining, mean","[1]; incubation 90 minutes, 1.0E-06 M",57 % remaining
same,"% Compound Remaining, single replicates (1st, 2nd, 3rd)","[1]; incubation 90 minutes, 1.0E-06 M, listed as GCM/LEM 3-C",59.1 % remaining and 54.4 % remaining and 53.2 % remaining
same,"% Compound Remaining, mean","[1]; incubation 120 minutes, 1.0E-06 M",51 % remaining
same,"% Compound Remaining, single replicates (1st, 2nd, 3rd)","[1]; incubation 120 minutes, 1.0E-06 M, listed as GCM/LEM 3-C",53.3 % remaining and 52.1 % remaining and 48.9 % remaining
CCCCCCC[C@@H](C)/C=C(/C)C/C(C)=C/[C@H](C)CCCC(=O)O [2-C],EC50,[2]; [8],1510 nM
same,GPR40 potency relative to oleic acid,[3],~7 times
same,EC50,[3],6200 nM and ~5000 nM
same,GPR40 max. efficacy,[3],95%
same,EC50,[4]; dose-response,2600 nM
same,GPR120 max. efficacy,[4]; dose-response,31%
CCC[C@@H](C)/C=C(/C)C/C(C)=C/[C@H](C)CCCCCCCC(=O)O [4-C],EC50,[2]; [8],1530 nM
same,activity against GPR120,"[4]; from Figure 6A, 15 μM",inactive
CCCC/C=C(/C)C/C(C)=C/[C@@H](C)CCCCCCCC(=O)O [4-B],EC50,[2]; [8],2970 nM
CCCCCCCCC[C@@H](C)/C=C(/C)C/C(C)=C/[C@@H](C)CC(=O)O [1-D],EC50,[2]; [8],3170 nM
CCCCCCCCC[C@H](C)/C=C(/C)C/C(C)=C/[C@@H](C)CC(=O)O [1-F],EC50,[2]; [8],1870 nM
same,EC50,[3],7200 nM
same,GPR40 max. efficacy,[3],123%
same,EC50,[4]; dose-response,> 42000 nM
same,GPR120 max. efficacy,[4]; [10],31%
CCC[C@@H](C)/C=C(/C)C/C(C)=C/[C@@H](C)CCCCCCCC(=O)O [4-D],EC50,[2]; [8],1570 nM
CCCCCCCCC[C@@H](C)/C=C(/C)C/C(C)=C/[C@H](C)CC(=O)O [1-C],EC50,[2]; [8],3120 nM
same,EC50,[3],7800 nM
same,GPR40 max. efficacy,[3],109%
same,EC50,[4]; dose-response,> 51000 nM
same,GPR120 max. efficacy,[4]; [10],29%
CCCCCCC[C@H](C)/C=C(/C)C/C(C)=C/[C@@H](C)CCCC(=O)O [2-F],EC50,[2]; [8],1560 nM
CCCCCC/C=C(/C)C/C(C)=C/[C@@H](C)CCCCCC(=O)O [3-B],EC50,[2]; [8],934 nM
same,EC50,[2]; [9],900 nM
same,TLX max. efficacy,[2],79%
CCC[C@H](C)/C=C(/C)C/C(C)=C/[C@H](C)CCCCCCCC(=O)O [4-E],EC50,[2]; [8],1320 nM
CCCCC[C@H](C)/C=C(/C)C/C(C)=C/[C@H](C)CCCCCC(=O)O [3-E],EC50,[2]; [8],959 nM
CCCCCCC[C@@H](C)/C=C(/C)C/C(C)=C/[C@@H](C)CCCC(=O)O [2-D],EC50,[2]; [8],1320 nM
same,GPR40 potency relative to oleic acid,[3],~7 times
same,EC50,[3],5500 nM and ~5000 nM
same,GPR40 max. efficacy,[3],87%
same,EC50,[4]; dose-response,≥ 7500 nM and 1000 to 7000 nM
same,GPR120 max. efficacy,[4]; [10],44%
